Data from PubChem BioAssay AID1259407 (Chemical Carcinogenesis Research Information System (CCRIS), 2018).
Entries after “also recorded” stand apart in the source; their conditions may differ. Calls of active or inactive are those of the source. How the calls were made is not given here.

System: CCRIS mutagenicity, Ames/micronucleus/aberration tests
Assay: CCRIS mutagenicity studies

`CC(=O)Nc1ccc2c(c1)Cc1ccccc1-2` was tested. Which mutagenic call (End Point: IN VITRO MICRONUCLEUS, Test System: AHH-1 CELLS, Metabolic Activation: NONE) did it give?
The mutagenic call was “active; positive”.

What about the mutagenic call (End Point: IN VITRO MICRONUCLEUS, Test System: MCL-5 CELLS, Metabolic Activation: NONE) of the same compound?
Its mutagenic call is “active; positive”.

What about the mutagenic call (End Point: IN VITRO MICRONUCLEUS, Test System: V79 CELLS, Metabolic Activation: RAT, LIVER, S-9, AROCLOR 1254) of the same compound?
The mutagenic call was “active; positive”.

What about the mutagenic call (End Point: In vivo micronucleus, Test System: Micronucleated hepatocytes, Species: Rat, Strain/Sex: F344/Male, Route: Oral) of the same compound?
The mutagenic call was “active; positive (p<0.01 at highest dose); also recorded: active; positive (p<0.05 at lower dose and p<0.01 at higher dose)”.

What about the mutagenic call (Test System: AMES SALMONELLA TYPHIMURIUM, Strain/Indicator: DJ400, Metabolic Activation: HUMAN, HEPATOMA CELLS, BENZO[A]ANTHRACENE, Method: PREINCUBATION) of the same compound?
Its mutagenic call is “active; positive”.

And the mutagenic call (Test System: AMES SALMONELLA TYPHIMURIUM, Strain/Indicator: DJ400, Metabolic Activation: HUMAN, HEPATOMA CELLS, Method: PREINCUBATION)?
Its mutagenic call is “active; positive”.

What about the mutagenic call (Test System: AMES SALMONELLA TYPHIMURIUM, Strain/Indicator: DJ400, Metabolic Activation: RAT, LIVER, S-9, AROCLOR 1254, Method: PREINCUBATION) of the same compound?
The mutagenic call was “active; positive”.

And the mutagenic call (Test System: AMES SALMONELLA TYPHIMURIUM, Strain/Indicator: DJ400, Metabolic Activation: RAT, LIVER, S-9, Method: PREINCUBATION)?
The mutagenic call was “active; positive”.

What about the mutagenic call (Test System: AMES SALMONELLA TYPHIMURIUM, Strain/Indicator: DJ460, Metabolic Activation: HUMAN, HEPATOMA CELLS, BENZO[A]ANTHRACENE, Method: PREINCUBATION) of the same compound?
Its mutagenic call is “active; positive”.

What about the mutagenic call (Test System: AMES SALMONELLA TYPHIMURIUM, Strain/Indicator: DJ460, Metabolic Activation: HUMAN, HEPATOMA CELLS, Method: PREINCUBATION) of the same compound?
The mutagenic call was “active; positive”.

What about the mutagenic call (Test System: AMES SALMONELLA TYPHIMURIUM, Strain/Indicator: DJ460, Metabolic Activation: RAT, LIVER, S-9, AROCLOR 1254, Method: PREINCUBATION) of the same compound?
The mutagenic call was “active; positive”.

What about the mutagenic call (Test System: AMES SALMONELLA TYPHIMURIUM, Strain/Indicator: DJ460, Metabolic Activation: RAT, LIVER, S-9, Method: PREINCUBATION) of the same compound?
Its mutagenic call is “active; positive”.

And the mutagenic call (Test System: AMES SALMONELLA TYPHIMURIUM, Strain/Indicator: TA97, Metabolic Activation: NONE, Method: STANDARD PLATE)?
Its mutagenic call is “inactive; negative”.

And the mutagenic call (Test System: AMES SALMONELLA TYPHIMURIUM, Strain/Indicator: TA97, Metabolic Activation: RAT, LIVER, S-9, AROCLOR 1254, Method: STANDARD PLATE)?
The mutagenic call was “inactive; negative”.

What about the mutagenic call (Test System: AMES SALMONELLA TYPHIMURIUM, Strain/Indicator: TA98, Metabolic Activation: GUINEA PIG, LIVER, HEPATOCYTES) of the same compound?
The mutagenic call was “active; positive”.

What about the mutagenic call (Test System: AMES SALMONELLA TYPHIMURIUM, Strain/Indicator: TA98, Metabolic Activation: GUINEA PIG, LIVER, S-9, Method: STANDARD PLATE) of the same compound?
Its mutagenic call is “active; positive”.

What about the mutagenic call (Test System: AMES SALMONELLA TYPHIMURIUM, Strain/Indicator: TA98, Metabolic Activation: HAMSTER, LIVER, HEPATOCYTES) of the same compound?
Its mutagenic call is “active; positive”.

And the mutagenic call (Test System: AMES SALMONELLA TYPHIMURIUM, Strain/Indicator: TA98, Metabolic Activation: HAMSTER, LIVER, S-9, Method: STANDARD PLATE)?
The mutagenic call was “active; positive”.

What about the mutagenic call (Test System: AMES SALMONELLA TYPHIMURIUM, Strain/Indicator: TA98, Metabolic Activation: HUMAN, FETAL LIVER, S-9) of the same compound?
Its mutagenic call is “inactive; negative”.

What about the mutagenic call (Test System: AMES SALMONELLA TYPHIMURIUM, Strain/Indicator: TA98, Metabolic Activation: HUMAN, HEPATOMA CELLS, BENZO[A]ANTHRACENE, Method: PREINCUBATION) of the same compound?
The mutagenic call was “active; positive”.

And the mutagenic call (Test System: AMES SALMONELLA TYPHIMURIUM, Strain/Indicator: TA98, Metabolic Activation: HUMAN, HEPATOMA CELLS, Method: PREINCUBATION)?
Its mutagenic call is “active; positive”.

What about the mutagenic call (Test System: AMES SALMONELLA TYPHIMURIUM, Strain/Indicator: TA98, Metabolic Activation: HUMAN, RED BLOOD CELL, CYTOSOL, Method: PREINCUBATION) of the same compound?
The mutagenic call was “active; positive”.

And the mutagenic call (Test System: AMES SALMONELLA TYPHIMURIUM, Strain/Indicator: TA98, Metabolic Activation: MOUSE, LIVER, HEPATOCYTES)?
Its mutagenic call is “inactive; negative”.

And the mutagenic call (Test System: AMES SALMONELLA TYPHIMURIUM, Strain/Indicator: TA98, Metabolic Activation: MOUSE, LIVER, S-9, Method: STANDARD PLATE)?
Its mutagenic call is “active; positive”.

What about the mutagenic call (Test System: AMES SALMONELLA TYPHIMURIUM, Strain/Indicator: TA98, Metabolic Activation: NONE, Method: SPIRAL ASSAY) of the same compound?
Its mutagenic call is “inactive; negative”.

What about the mutagenic call (Test System: AMES SALMONELLA TYPHIMURIUM, Strain/Indicator: TA98, Metabolic Activation: NONE, Method: STANDARD PLATE) of the same compound?
The mutagenic call was “inactive; negative”.

And the mutagenic call (Test System: AMES SALMONELLA TYPHIMURIUM, Strain/Indicator: TA98, Metabolic Activation: RABBIT, LIVER, MICROSOMAL FRACTION, Method: STANDARD PLATE)?
Its mutagenic call is “active; positive”.

What about the mutagenic call (Test System: AMES SALMONELLA TYPHIMURIUM, Strain/Indicator: TA98, Metabolic Activation: RABBIT, LUNG, MICROSOMAL FRACTION, Method: STANDARD PLATE) of the same compound?
Its mutagenic call is “active; positive”.

What about the mutagenic call (Test System: AMES SALMONELLA TYPHIMURIUM, Strain/Indicator: TA98, Metabolic Activation: RAT, BLADDER, S-9, PCB, Method: FLUCTUATION TEST) of the same compound?
The mutagenic call was “inactive; negative”.

And the mutagenic call (Test System: AMES SALMONELLA TYPHIMURIUM, Strain/Indicator: TA98, Metabolic Activation: RAT, LIVER, HEPATOCYTES)?
The mutagenic call was “inactive; negative”.

What about the mutagenic call (Test System: AMES SALMONELLA TYPHIMURIUM, Strain/Indicator: TA98, Metabolic Activation: RAT, LIVER, S-9, ACRYLAMIDE, Method: STANDARD PLATE) of the same compound?
The mutagenic call was “active; positive”.

What about the mutagenic call (Test System: AMES SALMONELLA TYPHIMURIUM, Strain/Indicator: TA98, Metabolic Activation: RAT, LIVER, S-9, AROCLOR 1254, Method: PREINCUBATION) of the same compound?
Its mutagenic call is “active; positive”.

What about the mutagenic call (Test System: AMES SALMONELLA TYPHIMURIUM, Strain/Indicator: TA98, Metabolic Activation: RAT, LIVER, S-9, AROCLOR 1254, Method: SPIRAL ASSAY) of the same compound?
Its mutagenic call is “active; positive”.

And the mutagenic call (Test System: AMES SALMONELLA TYPHIMURIUM, Strain/Indicator: TA98, Metabolic Activation: RAT, LIVER, S-9, PHENOBARBITAL, Method: STANDARD PLATE)?
Its mutagenic call is “active; positive”.

What about the mutagenic call (Test System: AMES SALMONELLA TYPHIMURIUM, Strain/Indicator: TA98, Metabolic Activation: RAT, LIVER, S-9, Method: PREINCUBATION) of the same compound?
The mutagenic call was “active; positive”.

What about the mutagenic call (Test System: AMES SALMONELLA TYPHIMURIUM, Strain/Indicator: TA98, Metabolic Activation: RAT, LIVER, S-9, Method: STANDARD PLATE) of the same compound?
The mutagenic call was “active; positive”.

And the mutagenic call (Test System: AMES SALMONELLA TYPHIMURIUM, Strain/Indicator: TA100, Metabolic Activation: NONE, Method: SPIRAL ASSAY)?
The mutagenic call was “inactive; negative”.

And the mutagenic call (Test System: AMES SALMONELLA TYPHIMURIUM, Strain/Indicator: TA100, Metabolic Activation: NONE, Method: STANDARD PLATE)?
The mutagenic call was “inactive; negative”.

And the mutagenic call (Test System: AMES SALMONELLA TYPHIMURIUM, Strain/Indicator: TA100, Metabolic Activation: RAT, BLADDER, S-9, PCB, Method: FLUCTUATION TEST)?
The mutagenic call was “inactive; negative”.

What about the mutagenic call (Test System: AMES SALMONELLA TYPHIMURIUM, Strain/Indicator: TA100, Metabolic Activation: RAT, LIVER, S-9, ACRYLAMIDE, Method: STANDARD PLATE) of the same compound?
Its mutagenic call is “active; positive”.

What about the mutagenic call (Test System: AMES SALMONELLA TYPHIMURIUM, Strain/Indicator: TA100, Metabolic Activation: RAT, LIVER, S-9, AROCLOR 1254, Method: SPIRAL ASSAY) of the same compound?
The mutagenic call was “inactive; negative”.

And the mutagenic call (Test System: AMES SALMONELLA TYPHIMURIUM, Strain/Indicator: TA100, Metabolic Activation: RAT, LIVER, S-9, KC500 OR PHENOBARBITAL, Method: LIQUID SUSPENSION)?
Its mutagenic call is “active; positive”.

What about the mutagenic call (Test System: AMES SALMONELLA TYPHIMURIUM, Strain/Indicator: TA100, Metabolic Activation: RAT, LIVER, S-9, PHENOBARBITAL, Method: STANDARD PLATE) of the same compound?
Its mutagenic call is “active; positive”.

What about the mutagenic call (Test System: AMES SALMONELLA TYPHIMURIUM, Strain/Indicator: TA1535, Metabolic Activation: NONE, Method: SPIRAL ASSAY) of the same compound?
Its mutagenic call is “inactive; negative”.

What about the mutagenic call (Test System: AMES SALMONELLA TYPHIMURIUM, Strain/Indicator: TA1535, Metabolic Activation: NONE, Method: STANDARD PLATE) of the same compound?
Its mutagenic call is “inactive; negative”.

What about the mutagenic call (Test System: AMES SALMONELLA TYPHIMURIUM, Strain/Indicator: TA1535, Metabolic Activation: RAT, LIVER, S-9, AROCLOR 1254, Method: SPIRAL ASSAY) of the same compound?
Its mutagenic call is “inactive; negative”.

What about the mutagenic call (Test System: AMES SALMONELLA TYPHIMURIUM, Strain/Indicator: TA1535, Metabolic Activation: RAT, LIVER, S-9, AROCLOR 1254, Method: STANDARD PLATE) of the same compound?
Its mutagenic call is “inactive; negative”.

And the mutagenic call (Test System: AMES SALMONELLA TYPHIMURIUM, Strain/Indicator: TA1537, Metabolic Activation: NONE, Method: SPIRAL ASSAY)?
Its mutagenic call is “inactive; negative”.
